# Data: patent publication US8207167B2, “Aryl-phenyl-sulfonamide-phenylene compounds and their use” (PIMCO 2664 Limited, priority 2008, dated 2012)
# Read-outs that look alike come from different tables or passages of the source.
# How the values were obtained:
# [1] = In vivo pharmacokinetics in rat, oral and intravenous; design: species or system Sprague-Dawley rats; conditions: 2.5 mg/kg; for half-life: read-out: T½ (converted)
# Procedure: Absorption and metabolic stability were studied using an in vivo pharmacokinetics assay. Drug levels were assessed using ultra-performance LC/TOF-MS.
# Three male Sprague-Dawley rats, 200-300 g, were dosed per route. […] Test compound was formulated in 50:50 tetraethylene glycol:PBS for both routes. Animals were given free access to food throughout the study. On the day prior to dosing, the carotid artery was cannulated for sample collection and for the intravenous study, the jugular vein was cannulated to enable dosing.
# Blood samples were taken from the carotid artery at the following time points and placed in heparinised tubes:
# Oral dosing—predose, 0.25, 0.5, 1, 2, 4, 8 and 24 hours post dose.
# IV dosing—predose, 0.08, 0.25, 0.5, 1, 2, 4 and 8 hours post dose.
# Blood samples were centrifuged to obtain plasma, which was transferred to a separate container and frozen at −20° C.
# Samples were thawed at room temperature and prepared by protein precipitation with acetonitrile in the ratio 1:2 with plasma, followed by centrifugation for 10 minutes at 16,100×g (Eppendorf 5415D, Eppendorf AG, Hamburg, Germany). The supernatants were collected for analysis. The standard samples were prepared similarly, after spiking blank rat plasma samples to study compound concentrations at 1, 2, 5, 10, 20, 50, 100, 200, 500 and 1000 ng/mL. In addition, extra samples were prepared from 0-1 hour i.v. samples by diluting 1/20 with 50% aqueous acetonitrile to avoid exceeding the linear range of the analytical method.
# A Waters Acquity liquid ultra-performance chromatographic system (Waters Corp., Milford, Mass., USA) with autosampler, vacuum degasser and column oven was used. The analytical column used for all compounds was a Waters BEH C18, (2.1×50 mm, 1.7 μm, Waters Corp, Milford, Mass., USA) together with a 0.2 μm on-line filter before the column. The eluents were 0.1% acetic acid (A, pH 3.2) and methanol (B). Gradient elution from 5% to 60% B in two minutes was employed, followed by one minute gradient to 90% B and column equilibration. The flow rate was 0.5 mL/min and the column oven temperature was 35° C. The flow was directed to the MS via Water Acquity photo-diode-array (PDA) detector. LC/TOF-MS data were recorded with a Micromass LCT Premier XE time-of-flight (TOF) mass spectrometer (Micromass Ltd., Manchester, England) equipped with a LockSpray electrospray ionization source. A positive ionization mode of electrospray was used for all compounds. The mass range of m/z 100-900 was acquired. The W-option of the reflector was used, and the DRE (dynamic range enhancement) option was set to on. The mass spectrometer and HPLC system were operated under Micromass MassLynx 4.1 software. Leucine enkephalin ([M+H]^+ m/z 556.2771) was used as a lock mass compound for accurate mass measurements and was delivered into the LockSpray probe with a syringe pump. MassLynx 4.1 software was used for controlling the instrumentation and for data processing.
# The pharmacokinetic parameters for the test compounds were calculated by WinNonlin Pro (Pharsight Corp, CA) using standard noncompartmental methods. The elimination phase half-life (t1/2) was calculated by least-squares regression analysis of the terminal linear part of the log concentration−time curve. The area under the plasma concentration−time curve (AUC) was determined by use of the linear trapezoidal rule up to the last measurable concentration and thereafter by extrapolation of the terminal elimination phase to infinity. The tentative oral bioavailability (F) was calculated by dividing the AUC (0-24 hours) after p.o. administration by the AUC (0-8 hours) after i.v. administration, i.e., F=AUC(p.o.)/AUC(i.v), and reported as percentages (%).
# [2] = Thermodynamic aqueous solubility in fasted state simulated intestinal fluid (FaSSIF); type: physicochemical; conditions: fasted state simulated intestinal fluid (FaSSIF), pH 6.5, thermodynamic from solid, 25° C., 24 hours equilibration, HPLC
# Procedure: (§1) Initial screening of candidate compounds was performed using in vitro assays to determine potency, metabolic stability and solubility in biologically relevant fluids. Potency was assessed using a viability assay based on the survival of the J774 macrophage cell line. Macrophages are closely related to osteoclasts and have been used previously as a model system for osteoclast survival (see, e.g., Luckman et al., 1998). Like osteoclasts, J774 macrophages are dependent on continued NFκB activation for survival, thereby providing a valuable screen for compounds with anti-inflammatory activity. Metabolic stability was measured by determining the rate of disappearance of compound in the presence of human liver microsomal preparations, as quantified by LC-MS/MS. Solubility was measured by equilibration of the compound in fasted state simulated intestinal fluid (FaSSIF) and quantified by HPLC.
# Thermodynamic aqueous solubility was measured by equilibration of a number of APSAP compounds, in the solid state, with fasted state simulated intestinal fluid (FaSSIF) and quantified by HPLC. Measurement of solubility in FaSSIF provides a valuable model for the prediction of drug dissolution following oral administration.
# Preparation of blank FaSSIF: NaOH pellets (174 mg), NaH2PO4.2H2O (2.235 g), and NaCl (3.093 g) were dissolved in 500 mL of water. The pH was adjusted to 6.5 using 1 M NaOH solution.
# Preparation of FaSSIF: Sodium taurocholate (165 mg) was dissolved in 25 mL blank FaSSIF. 0.6 mL of a solution containing 100 mg/mL lecithin in methylene chloride was added. The methylene chloride was eliminated under vacuum at about 40° C. The vacuum was drawn for 15 minutes at 250 mbar, followed by 15 minutes at 100 mbar. […] After cooling to room temperature, the solution was then adjusted to 100 mL with blank FaSSIF.
# The suspension was equilibrated at 25° C. for 24 hours, and then the pH was measured. The suspension was then filtered through a glass fibre C filter into a 96-well plate. The filtrate was then diluted by a factor of 100. Quantification was made by HPLC with reference to a standard solution of compound at approximately 0.1 mg/mL in DMSO. Different volumes of the standard, diluted and undiluted sample solutions were injected. The solubility was calculated using the peak areas determined by integration of the peak found at the same retention time as the principal peak in the standard injection. Analysis was performed on an Agilent HP1100 series system equipped with a diode array detector and using ChemStation software vB.02.01-SR1.
# [3] = tested on: J774 macrophages; assay: Alamar Blue macrophage J774 viability assay; type: cell-based; conditions: Mus musculus, 72 hours culture with compound, Alamar Blue read-out
# Procedure: as §1
# In vitro potency as anti-inflammatory agents was determined for a number of APSAP compounds by incubation with J774 macrophages and subsequent determination of cell viability.
# J774 cells were plated at 10^4 cells per well in 100 μL αMEM (α Modified Eagle Medium) in 96-well plates and grown overnight. The next day, test compounds were added to the cultures, and cultures were continued for another 72 hours. At the end of the culture period, cell survival was determined using an Alamar Blue assay as previously described (see, e.g., Nociari et al., 1998).
# Alamar Blue is an oxidation-reduction sensitive indicator. The dye itself is in the oxidised state, which is blue and non-fluorescent. The dye can accept electrons from reducing species, such as NADPH and FADH, to form a reduced dye species, which is red and fluorescent. Thus the transformation from oxidised form to reduced form can be measured by fluorimetric or colourimetric means. For fluorescence measurements, 530-560 nm excitation and 590 nm emission wavelengths are typically used. For colourimetric measurements, absorbance at 570 nm (reduced form) and 600 nm (oxidised form) is typically measured. A simple calculation is performed to determine the relative quantities of the two species.
# A high ratio of the reducing species, NADPH and FADH, to the corresponding oxidised species, NADP and FAD, is an indicator that cells are proliferating and viable. A low ratio indicates cells that are quiescent or non-viable.
# Briefly, Alamar Blue (Biosource International) was added undiluted to each well (1:10 v/v, 10 μL). The plate was incubated at 37° C. for 3-4 hours and the fluorescence was measured at 590 nm, with a 25 nm bandwidth. A high reading indicated cells with normal viability, and a low reading indicated cells that have been damaged and are no longer proliferating normally. The controls gave a high fluorescence reading, indicating a high number of live, healthy cells. A potent test compound gave a low fluorescence reading.
# The average results for each test compound (n=5) were expressed as a percent (%) of the average control value.
# Addition of Compounds. All of the compounds studied were made up as 100 mM solutions in DMSO. These stock solutions were then diluted 1000-10000× in culture medium (αMEM). From these 100 μM or 10 μM solutions, convenient quantities (3-33 μL) were added directly to the wells so as to give the desired final compound concentration.
# [4] = Human liver microsomal stability assay; type: in vitro ADME; conditions: pooled human liver microsomes 0.5 mg/mL, test compound 3 μM, 45 minute incubation, NADPH; for half-life at 3 μM: both sexes, pH 7.4
# Procedure: as §1
# Metabolic stability of APSAP derivatives was measured by determination of the rate of compound disappearance when incubated in the presence of human liver microsomes. Liver microsomes are prepared from the endoplasmic reticulum of hepatocytes and are the primary source of the most important enzymes (cytochrome P450) involved in drug metabolism. Study of drug stability in the presence of liver microsomes is accepted as a valuable model permitting rapid prediction of in vivo drug stability.
# Human liver microsomes were obtained from a commercial source. Test compounds (3 μM) were incubated with pooled liver microsomes (male and female). Samples were incubated for a 45 minute period and removed at 5 time points and test compounds were analysed by LC-MS/MS.
# The final incubation volume was 25 μL. A control incubation was included for each compound tested, where 0.1 M phosphate buffer pH 7.4 was added instead of NADPH. The control compounds testosterone and 7-hydroxycoumarin were included in each experiment and all incubations were performed singularly for each compound.
# Each compound was incubated for 0, 5, 15, 30, and 45 minutes. The control (minus NADPH) was incubated for 45 minutes only. The reactions were stopped by the addition of 50 μL methanol containing internal standard at the appropriate time points. The incubation plates were centrifuged at 2500 rpm for 20 minutes at 4° C. to precipitate the protein.
# Following protein precipitation, the sample supernatants were combined in cassettes of up to 4 compounds and analysed using standard LC-MS/MS conditions.
# From a plot of the natural logarithm of the peak area ratio (i.e., the ratio of compound peak area:internal standard peak area) against time, the gradient of the line was determined. Subsequently, half-life and intrinsic clearance were calculated using the equations below: Eliminated rate constant(k)=(−gradient). […] Intrinsic Clearance(CLint)([…])=(V×0.693)/t1/2. wherein V=Incubation volume(μL/mg microsomal protein). Pharmacokinetics Studies
SMILES,AUC ([1]; i.v.) [ng/mL/min],"half-life ([1]; male, Sprague-Dawley, plasma, iv, i.v.) [min]","bioavailability ([1]; male, Sprague-Dawley, plasma, oral, F=AUC(p.o.)/AUC(i.v.)) [%]","half-life ([1]; male, Sprague-Dawley, plasma, po, p.o.) [min]",AUC ([1]; p.o.) [ng/mL/min],solubility at 24 h [2] [µg/mL],T1/2 [4],half-life at 3 μM [4] [min],IC50 [3] [µM]
"O=S(=O)(Nc1cccc(CO)c1)c1ccc(-c2ccc(Cl)cc2Cl)cc1 [ABD455, 2′,4′-dichloro-N-(3-(hydroxymethyl)phenyl)biphenyl-4-sulfonamide, reference compound]",9,31.8,3,48,1.2,40,,,
"O=S(=O)(Nc1cccc(C(O)CN2CCOCC2)c1)c1ccc(-c2ccc(F)cc2F)cc1 (stereo not drawn) [ABD785, 2′,4′-Difluoro-N-(3-(1-hydroxy-2-morpholinoethyl)phenyl)biphenyl-4-sulfonamide]",,,,,,210,,6,4.71
"NCc1cccc(NS(=O)(=O)c2ccc(-c3ccc(F)cc3F)cc2)c1 [ABD788, N-(3-(Aminomethyl)phenyl)-2′,4′-difluorobiphenyl-4-sulfonamide]",,,,,,50,,60,1
"O=S(=O)(Nc1cccc(C(CO)N2CCOCC2)c1)c1ccc(-c2ccc(F)cc2F)cc1 (stereo not drawn) [ABD792, 2′,4′-Difluoro-N-(3-(2-hydroxy-1-morpholinoethyl)phenyl)biphenyl-4-sulfonamide]",,,,,,4400,,2,> 30

# Now from value to compound, other results behind:
AUC ([1]; i.v.) [ng/mL/min],"half-life ([1]; male, Sprague-Dawley, plasma, iv, i.v.) [min]","bioavailability ([1]; male, Sprague-Dawley, plasma, oral, F=AUC(p.o.)/AUC(i.v.)) [%]","half-life ([1]; male, Sprague-Dawley, plasma, po, p.o.) [min]",AUC ([1]; p.o.) [ng/mL/min],solubility at 24 h [2] [µg/mL],T1/2 [4],half-life at 3 μM [4] [min],SMILES,IC50 [3] [µM]
,,,,,370,Stable,,"CNCC(O)c1cccc(NS(=O)(=O)c2ccc(-c3ccc(F)cc3F)cc2)c1 (stereo not drawn) [ABD783, 2′,4′-Difluoro-N-(3-(1-hydroxy-2-(methylamino)ethyl)phenyl)biphenyl-4-sulfonamide]",1.18
,,,,,3000,,27,"CN(C)C(CO)c1cccc(NS(=O)(=O)c2ccc(-c3ccc(F)cc3F)cc2)c1 (stereo not drawn) [ABD791, N-(3-(1-(Dimethylamino)-2-hydroxyethyl)phenyl)-2′,4′-difluorobiphenyl-4-sulfonamide]",0.57
,,,,,4100,,289,"N[C@H](CO)c1cccc(NS(=O)(=O)c2ccc(-c3ccc(F)cc3F)cc2)c1 [ABD855, (S)—N-(3-(1-Amino-2-hydroxyethyl)phenyl)-2′,4′-difluorobiphenyl-4-sulfonamide]",0.86
